How the values were obtained:
[1] = parameters: method as in PMID 33495926; conditions: co-administration of maximum dose of 2000 pmoles PSMA-11; cited from earlier work
[2] = tested on: BALB/c nude mice bearing LS174T PSMA-positive tumor xenografts; assay: Ex vivo biodistribution studies; assay type: in vivo
Protocol: Animal experiments were performed in 8–10 weeks old male BALB/c nude mice (Janvier Labs, Le Genest-Saint-Isle, France). Animals were housed in individually ventilated cages (Blue line IVC, 4 mice per cage) under nonsterile standard conditions with cage enrichment present and free access to chlorophyll-free animal chow (Sniff GmbH, Soest, Germany) and water and acclimated for 1 week before experiments. Mice were subcutaneously inoculated with 4.0 × 10^6 LS174T cells in the right flank, diluted in 100 μL of cell suspension. Seven days after tumor cell inoculation, when xenografts were approximately 0.2–0.3 cm^3, the tracers were injected intravenously via the tail vein. All experiments were approved by the institutional Animal Welfare Committee and were conducted in accordance with the guidelines of the Revised Dutch Act on Animal Experimentation (WOD).
Mice were intravenously injected with ~1 nmol of either [^111In]In-PSMA-617, [^111In]In-22 or [^111In]In-30 with molar activity of 5 MBq/nmol for ex vivo biodistribution studies. Mice (n = 4/timepoint) were euthanized by cervical dislocation at 1, 4, and 24 h p.i. A block group was included, and mice were euthanized at 4 h p.i. Organs were collected in tubes and counted in the gamma counter, where the calibration factor was determined by measuring different known activities of indium-111.

[3] = LogD7.4 by shake-flask method (PBS/n-octanol); assay type: physicochemical; conditions: LogD7.4, PBS pH 7.4/n-octanol, indium-111 labeled compound
Protocol: The distribution coefficients (LogD7.4 values) were determined by a shake-flask method, in which 2 μL (~0.5 MBq) of the labeling solution ([^111In]In-22 or [^111In]In-30) were added to an Eppendorf tube containing 1 mL of PBS (0.01 M, pH 7.4)/n-octanol (v/v, 1:1). After vigorous vortexing, the solution was centrifuged at 2500× g for 15 min for phase separation. Samples (3 × 10 μL) of the two phases were taken out and measured in a gamma counter. LogD7.4 values were calculated by using the following equation: LogD7.4 = log [(counts in octanol phase)/(counts in aqueous phase)] and the experiment was performed in triplicate.

[4] = Stability in phosphate-buffered saline (PBS), radio-HPLC; assay type: physicochemical; conditions: 24 h post-incubation, 37 °C, indium-111 labeled, intact fraction
Protocol: [^111In]In-22 or [^111In]In-30 (~10 MBq, 20 µL) was mixed with 80 μL of PBS (0.01 M, pH 7.4) and incubated at 37 °C for up to 24 h. A sample of the PBS solution was loaded directly onto the radio-HPLC at 1, 4, and 24 h post-incubation.

[5] = tested on: PSMA expressing LS174T cells; assay: Internalization and cell uptake assay; assay type: cell-based, human; conditions: 2 h 37 °C
Protocol: LS174T human colon carcinoma cells transfected with human PSMA were obtained from Dr. Sandra Heskamp (Radboud UMC, Nijmegen). Cells were cultured in RPMI-1640 media supplemented with 2 mM glutamine, 10% fetal bovine serum (FBS) and 0.3 mg/mL G418 (Geneticin, Sigma Aldrich, St. Louis, MO, USA).
Cells were seeded (1.2 × 10^6 cells/well) and cultured to confluency for 24 h prior to experiments. We prepared 10^−9 M solutions of [^111In]In-PSMA-617, [^111In]In-22, and [^111In]In-30 in internalization media (RPMI, 20 mM HEPES, 1% BSA, pH 7.4). The media were removed from each well, and they were rinsed twice with PBS at rt. 2 mL of the radioactive compound was then added to each well and incubated at 37 °C for 2 h. For the internalization assay, the media containing radioactive compound were removed, and each well was washed twice with cold PBS. A total of 1 mL of Glycine buffer (50 mM glycine, 100 mM NaCl, pH 2.8) was added immediately and incubated for 10 min at rt. The glycine wash was then collected into counting tubes (membrane-bound fraction). An extra wash was performed and collected in the same tubes. A total of 1 mL of NaOH (1 M) was then added to each tube and left for 15 min at rt. The lysate (internalized fraction) was then collected in separate counting tubes, together with one extra NaOH wash. Data were normalized to 1,000,000 cells and percentage added dose.

[6] = Stability in mouse serum, radio-HPLC; assay type: in vitro ADME
Protocol: [^111In]In-22 or [^111In]In-30 (~35 MBq, 70 µL) was mixed with 330 μL of mouse serum and incubated at 37 °C for up to 24 h. After 1, 4, and 24 h incubation, 50 μL of the mouse serum solution was added to a separate vial containing 50 µL of acetonitrile. The sample was centrifuged at 5000× g for 20 min. The supernatant was analyzed by radio-HPLC.

[7] = 4 h p.i. block group (excess unlabeled PSMA ligand)

In the case of `O=C(O)CCc1ccc(O)c(CN(CCN(CC(=O)O)Cc2cc(CCC(=O)NCCCCCC(=O)NCCCC[C@H](NC(=O)N[C@@H](CCC(=O)O)C(=O)O)C(=O)O)ccc2O)CC(=O)O)c1` [PSMA-11], the “Decrease in kidney uptake of [177Lu]Lu-PSMA” value [1] is given as 99.5%, the “Decrease in salivary gland uptake of [177Lu]Lu-PSMA” value [1] is given as 89.5% and the “Decrease in tumor-uptake of [177Lu]Lu-PSMA” value [1] is given as 44.5%.

With `CC(C)C[C@H](NC(=O)[C@H](Cc1ccccc1)NC(=O)[C@H](CC(=O)O)NC(=O)CCC(C(=O)O)N1CCN(CC(=O)[O-])CCN(CC(=O)[O-])CCN(CC(=O)[O-])CC1)[C@@H](O)CC(=O)NCCCCCC(=O)NCCCC[C@H](NC(=O)N[C@@H](CCC(=O)O)C(=O)O)C(=O)O.[111In+3]` (stereo partly drawn) [[^111In]In-22] the “Tumor-to-muscle (T/M) ratio” value ([2]; 1 h p.i.) was 31, the Blood uptake ([2]; 1 h p.i., i.v. ~1 nmol) was 0.14 ± 0.01 % ID/g and the Bone uptake ([2]; 1 h p.i., i.v. ~1 nmol) was 0.20 ± 0.01 % ID/g. It also gave a Heart uptake ([2]; 1 h p.i., i.v. ~1 nmol) of 0.13 ± 0.05 % ID/g, an Intestines uptake ([2]; 1 h p.i., i.v. ~1 nmol) of 0.26 ± 0.17 % ID/g and a Kidney uptake ([2]; 1 h p.i., i.v. ~1 nmol) of 22.56 ± 2.59 % ID/g. For the same compound, the Liver uptake ([2]; 1 h p.i., i.v. ~1 nmol) was 0.17 ± 0.03 % ID/g, the Lung uptake ([2]; 1 h p.i., i.v. ~1 nmol) was 0.45 ± 0.07 % ID/g and the Muscle uptake ([2]; 1 h p.i., i.v. ~1 nmol) was 0.07 ± 0.01 % ID/g. It also gave a Pancreas uptake ([2]; 1 h p.i., i.v. ~1 nmol) of 0.22 ± 0.03 % ID/g, a Prostate uptake ([2]; 1 h p.i., i.v. ~1 nmol) of 0.51 ± 0.25 % ID/g and a Skin uptake ([2]; 1 h p.i., i.v. ~1 nmol) of 0.44 ± 0.16 % ID/g. The Spleen uptake ([2]; 1 h p.i., i.v. ~1 nmol) was 1.82 ± 0.37 % ID/g, the Stomach uptake ([2]; 1 h p.i., i.v. ~1 nmol) was 0.11 ± 0.01 % ID/g and the Tumor uptake ([2]; 1 h p.i., i.v. ~1 nmol) was 2.05 ± 0.52 % ID/g. For the same compound, the “Tumor-to-muscle (T/M) ratio” value ([2]; 4 h p.i.) was 48, the Blood uptake [2, 7] was 0.02 ± 0.00 % ID/g and the Bone uptake [2, 7] was 0.23 ± 0.13 % ID/g. It also gave a Heart uptake [2, 7] of 0.04 ± 0.01 % ID/g, an Intestines uptake [2, 7] of 0.27 ± 0.03 % ID/g and a Kidney uptake [2, 7] of 8.20 ± 0.67 % ID/g. It also gave a Liver uptake [2, 7] of 0.09 ± 0.00 % ID/g, a Lung uptake [2, 7] of 0.09 ± 0.01 % ID/g and a Muscle uptake [2, 7] of 0.03 ± 0.01 % ID/g. The Pancreas uptake [2, 7] was 0.04 ± 0.01 % ID/g, the Prostate uptake [2, 7] was 0.09 ± 0.01 % ID/g and the Skin uptake [2, 7] was 0.24 ± 0.07 % ID/g. It also gave a Spleen uptake [2, 7] of 0.09 ± 0.00 % ID/g, a Stomach uptake [2, 7] of 0.17 ± 0.13 % ID/g and a Tumor uptake [2, 7] of 0.27 ± 0.14 % ID/g. The Blood uptake ([2]; 4 h p.i., i.v. ~1 nmol) was 0.02 ± 0.01 % ID/g, the Bone uptake ([2]; 4 h p.i., i.v. ~1 nmol) was 0.11 ± 0.06 % ID/g and the Heart uptake ([2]; 4 h p.i., i.v. ~1 nmol) was 0.04 ± 0.01 % ID/g. It also gave an Intestines uptake ([2]; 4 h p.i., i.v. ~1 nmol) of 0.30 ± 0.05 % ID/g, a Kidney uptake ([2]; 4 h p.i., i.v. ~1 nmol) of 13.55 ± 1.04 % ID/g and a Liver uptake ([2]; 4 h p.i., i.v. ~1 nmol) of 0.10 ± 0.01 % ID/g. It also gave a Lung uptake ([2]; 4 h p.i., i.v. ~1 nmol) of 0.12 ± 0.03 % ID/g, a Muscle uptake ([2]; 4 h p.i., i.v. ~1 nmol) of 0.03 ± 0.02 % ID/g and a Pancreas uptake ([2]; 4 h p.i., i.v. ~1 nmol) of 0.06 ± 0.03 % ID/g. For the same compound, the Prostate uptake ([2]; 4 h p.i., i.v. ~1 nmol) was 0.18 ± 0.17 % ID/g, the Skin uptake ([2]; 4 h p.i., i.v. ~1 nmol) was 0.24 ± 0.18 % ID/g and the Spleen uptake ([2]; 4 h p.i., i.v. ~1 nmol) was 0.30 ± 0.09 % ID/g. The Stomach uptake ([2]; 4 h p.i., i.v. ~1 nmol) was 0.09 ± 0.06 % ID/g, the Tumor uptake ([2]; 4 h p.i., i.v. ~1 nmol) was 1.23 ± 0.59 % ID/g and the “Tumor-to-muscle (T/M) ratio” value ([2]; 24 h p.i.) was 14. The Bone uptake ([2]; 24 h p.i., i.v. ~1 nmol) was 0.13 ± 0.04 % ID/g, the Heart uptake ([2]; 24 h p.i., i.v. ~1 nmol) was 0.03 ± 0.01 % ID/g and the Intestines uptake ([2]; 24 h p.i., i.v. ~1 nmol) was 0.04 ± 0.02 % ID/g. For the same compound, the Kidney uptake ([2]; 24 h p.i., i.v. ~1 nmol) was 5.89 ± 1.49 % ID/g, the Liver uptake ([2]; 24 h p.i., i.v. ~1 nmol) was 0.06 ± 0.01 % ID/g and the Lung uptake ([2]; 24 h p.i., i.v. ~1 nmol) was 0.05 ± 0.01 % ID/g. For the same compound, the Muscle uptake ([2]; 24 h p.i., i.v. ~1 nmol) was 0.03 ± 0.00 % ID/g, the Pancreas uptake ([2]; 24 h p.i., i.v. ~1 nmol) was 0.03 ± 0.01 % ID/g and the Prostate uptake ([2]; 24 h p.i., i.v. ~1 nmol) was 0.08 ± 0.03 % ID/g. The Skin uptake ([2]; 24 h p.i., i.v. ~1 nmol) was 0.15 ± 0.01 % ID/g, the Spleen uptake ([2]; 24 h p.i., i.v. ~1 nmol) was 0.09 ± 0.02 % ID/g and the Stomach uptake ([2]; 24 h p.i., i.v. ~1 nmol) was 0.02 ± 0.01 % ID/g. The Tumor uptake ([2]; 24 h p.i., i.v. ~1 nmol) was 0.61 ± 0.40 % ID/g, the Tumor uptake ([2]; 24 h p.i., i.v. ~1 nmol, listed as [111In]In-22) was 0.41 ± 0.08 % ID/g and the logD [3] was −3.26 ± 0.05. The “Stability in PBS (%)” value [4] was 95.4%, the Internalized fraction ([5]; 10^-9 M, NaOH lysate) was 0.53 ± 0.08 % AD and the Membrane-bound uptake ([5]; 10^-9 M, glycine wash) was 1.02 ± 0.15 % AD. For the same compound, the Total uptake ([5]; 10^-9 M, normalized to 1,000,000 cells) was 1.55 ± 0.21 % AD, the “Internalized fraction as share of total uptake (internalization)” value [5] was 34.2% and the “Membrane-bound uptake as share of total uptake” value [5] was 66%. The “Membrane-bound uptake as share of total uptake” value ([5]; listed as [111In]In-22) was 65.8%, the “Stability in Mouse Serum (%)” value ([6]; 24 h post-incubation, 37 °C, indium-111 labeled, intact fraction) was 95.1% and the Proteolytic degradation ([6]; mouse serum up to 24 h) was “No proteolytic degradation”.

Source: article PMC10223019, “Preclinical Evaluation of a PSMA-Targeting Homodimer with an Optimized Linker for Imaging of Prostate Cancer” (Molecules, 2023)
